# Assay results from patent US7544373B2, “Minocycline oral dosage forms for the treatment of acne” (Medicis Pharmaceutical Corporation, priority 2007, dated 2009).
# Assay: Repeat-dose primate toxicology studies
# Type: in vivo
structure (smiles),measurement,setting,value
CN(C)c1ccc(O)c2c1C[C@H]1C[C@H]3[C@H](N(C)C)C(O)=C(C(N)=O)C(=O)[C@@]3(O)C(O)=C1C2=O [minocycline],lowest exposure which yields adverse effects,4 weeks,~15 µg/mL
same,lowest exposure which yields adverse effects,13 weeks,~7 µg/mL
